What is called IC50 is the concentration that inhibits the measured activity by half.

One data set concerns MV-4-11. In words: Apoptosis induction by FACS (FITC-Annexin V / PI). Format: cell-based. The conditions noted are these: MV-4-11, increasing concentration of inhibitor. A general note: Flow cytometry measures light scatter and fluorescence of single cells or particles in a stream.
Data set [1] in a line: Kinetic solubility by analytical HPLC. Format: physicochemical. Conditions: PBS with 5% (v/v) DMSO, aqueous with cosolvent or surfactant or cyclodextrin, kinetic from dmso stock; PBS + 5% DMSO; initial concentration 300 μM; read-out: Saturation Concentration. The protocol:
The initial concentration of each exemplary compound was 300 μM.

The target of another data set is HDAC11 (Homo sapiens, UniProt Q96DB2). Description: in vitro activity-based HDAC assay. Format: biochemical. The conditions noted are these: human HDAC isoform panel, Table 1.
In the next data set the target is T1, HDAC10 (Homo sapiens, UniProt Q969S8).
T1 sequence (Q969S8 1-669): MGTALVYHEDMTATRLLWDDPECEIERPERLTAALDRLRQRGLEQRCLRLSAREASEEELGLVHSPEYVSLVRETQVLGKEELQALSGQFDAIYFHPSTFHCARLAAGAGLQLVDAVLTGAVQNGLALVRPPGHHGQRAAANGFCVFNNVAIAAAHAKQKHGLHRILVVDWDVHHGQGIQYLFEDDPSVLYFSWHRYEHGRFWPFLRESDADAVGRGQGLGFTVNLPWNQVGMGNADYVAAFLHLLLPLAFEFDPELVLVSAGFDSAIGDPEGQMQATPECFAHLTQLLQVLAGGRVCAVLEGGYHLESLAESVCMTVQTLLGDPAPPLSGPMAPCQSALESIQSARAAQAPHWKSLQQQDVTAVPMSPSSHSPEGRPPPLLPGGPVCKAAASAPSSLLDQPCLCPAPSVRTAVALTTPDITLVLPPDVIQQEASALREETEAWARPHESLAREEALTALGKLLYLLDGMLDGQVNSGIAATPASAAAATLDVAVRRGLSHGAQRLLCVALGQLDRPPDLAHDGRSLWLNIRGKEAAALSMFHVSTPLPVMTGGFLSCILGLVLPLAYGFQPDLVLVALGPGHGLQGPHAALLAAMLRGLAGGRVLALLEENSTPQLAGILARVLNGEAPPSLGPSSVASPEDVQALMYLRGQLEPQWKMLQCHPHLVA
Description: in vitro activity-based HDAC assay. Format: biochemical. The conditions noted are these: human HDAC isoform panel, Table 1.

Another data set addresses HDAC2 (Homo sapiens, UniProt Q92769). In words: in vitro activity-based HDAC assay. Conditions: human HDAC isoform panel, Table 1. Format: biochemical.
In another data set the target is HDAC9 (Homo sapiens, UniProt Q9UKV0). Description: in vitro activity-based HDAC assay. The conditions noted are these: human HDAC isoform panel, Table 1. Format: biochemical.
The next data set addresses HDAC8 (Homo sapiens, UniProt Q9BY41). Description: in vitro activity-based HDAC assay. Format: biochemical. The conditions noted are these: human HDAC isoform panel, Table 1.
Another data set has as its target HDAC5 (Homo sapiens, UniProt Q9UQL6). Description: in vitro activity-based HDAC assay. Format: biochemical. Conditions: human HDAC isoform panel, Table 1.
A further data set concerns the target HDAC4 (Homo sapiens, UniProt P56524). Description: in vitro activity-based HDAC assay. The conditions noted are these: human HDAC isoform panel, Table 1. Format: biochemical.
The target in the next data set is T2, HDAC6 (Homo sapiens, UniProt Q9UBN7).
T2 sequence (Q9UBN7 1-1215): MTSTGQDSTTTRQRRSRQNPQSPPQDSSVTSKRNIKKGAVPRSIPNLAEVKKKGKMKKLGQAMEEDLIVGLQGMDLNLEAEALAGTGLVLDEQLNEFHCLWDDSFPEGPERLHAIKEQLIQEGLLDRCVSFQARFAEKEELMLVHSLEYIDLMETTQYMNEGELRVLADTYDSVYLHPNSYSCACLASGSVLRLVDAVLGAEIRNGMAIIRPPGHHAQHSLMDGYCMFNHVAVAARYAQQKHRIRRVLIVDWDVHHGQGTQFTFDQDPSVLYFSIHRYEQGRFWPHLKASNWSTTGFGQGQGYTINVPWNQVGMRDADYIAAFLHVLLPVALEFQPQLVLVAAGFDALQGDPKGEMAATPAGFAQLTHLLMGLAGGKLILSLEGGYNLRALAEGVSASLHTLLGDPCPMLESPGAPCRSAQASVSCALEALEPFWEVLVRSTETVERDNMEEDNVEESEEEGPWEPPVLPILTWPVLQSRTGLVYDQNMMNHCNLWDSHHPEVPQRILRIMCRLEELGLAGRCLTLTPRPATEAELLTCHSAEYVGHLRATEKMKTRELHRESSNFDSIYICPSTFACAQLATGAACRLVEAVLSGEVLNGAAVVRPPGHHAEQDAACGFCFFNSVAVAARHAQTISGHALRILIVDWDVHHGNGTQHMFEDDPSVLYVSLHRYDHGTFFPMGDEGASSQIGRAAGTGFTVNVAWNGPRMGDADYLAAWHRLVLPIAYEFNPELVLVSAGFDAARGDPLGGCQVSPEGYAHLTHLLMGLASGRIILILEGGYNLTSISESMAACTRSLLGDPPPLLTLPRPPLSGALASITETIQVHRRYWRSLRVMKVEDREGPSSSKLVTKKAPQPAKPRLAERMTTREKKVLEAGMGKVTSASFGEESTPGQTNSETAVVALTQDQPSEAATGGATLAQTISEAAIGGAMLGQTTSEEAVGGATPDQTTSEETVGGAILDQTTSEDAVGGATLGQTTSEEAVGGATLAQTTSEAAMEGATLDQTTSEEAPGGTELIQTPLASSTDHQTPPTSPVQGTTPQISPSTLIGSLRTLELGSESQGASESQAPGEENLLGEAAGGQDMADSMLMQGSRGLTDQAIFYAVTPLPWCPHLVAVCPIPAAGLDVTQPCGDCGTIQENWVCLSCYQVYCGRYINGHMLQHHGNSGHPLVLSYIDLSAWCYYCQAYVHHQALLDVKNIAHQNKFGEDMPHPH
In words: in vitro activity-based HDAC assay. Format: biochemical. Conditions: human HDAC isoform panel, Table 1; read-out: IC50 HDAC6.

Sequence of HDAC4 (P56524 whole entry, canonical isoform): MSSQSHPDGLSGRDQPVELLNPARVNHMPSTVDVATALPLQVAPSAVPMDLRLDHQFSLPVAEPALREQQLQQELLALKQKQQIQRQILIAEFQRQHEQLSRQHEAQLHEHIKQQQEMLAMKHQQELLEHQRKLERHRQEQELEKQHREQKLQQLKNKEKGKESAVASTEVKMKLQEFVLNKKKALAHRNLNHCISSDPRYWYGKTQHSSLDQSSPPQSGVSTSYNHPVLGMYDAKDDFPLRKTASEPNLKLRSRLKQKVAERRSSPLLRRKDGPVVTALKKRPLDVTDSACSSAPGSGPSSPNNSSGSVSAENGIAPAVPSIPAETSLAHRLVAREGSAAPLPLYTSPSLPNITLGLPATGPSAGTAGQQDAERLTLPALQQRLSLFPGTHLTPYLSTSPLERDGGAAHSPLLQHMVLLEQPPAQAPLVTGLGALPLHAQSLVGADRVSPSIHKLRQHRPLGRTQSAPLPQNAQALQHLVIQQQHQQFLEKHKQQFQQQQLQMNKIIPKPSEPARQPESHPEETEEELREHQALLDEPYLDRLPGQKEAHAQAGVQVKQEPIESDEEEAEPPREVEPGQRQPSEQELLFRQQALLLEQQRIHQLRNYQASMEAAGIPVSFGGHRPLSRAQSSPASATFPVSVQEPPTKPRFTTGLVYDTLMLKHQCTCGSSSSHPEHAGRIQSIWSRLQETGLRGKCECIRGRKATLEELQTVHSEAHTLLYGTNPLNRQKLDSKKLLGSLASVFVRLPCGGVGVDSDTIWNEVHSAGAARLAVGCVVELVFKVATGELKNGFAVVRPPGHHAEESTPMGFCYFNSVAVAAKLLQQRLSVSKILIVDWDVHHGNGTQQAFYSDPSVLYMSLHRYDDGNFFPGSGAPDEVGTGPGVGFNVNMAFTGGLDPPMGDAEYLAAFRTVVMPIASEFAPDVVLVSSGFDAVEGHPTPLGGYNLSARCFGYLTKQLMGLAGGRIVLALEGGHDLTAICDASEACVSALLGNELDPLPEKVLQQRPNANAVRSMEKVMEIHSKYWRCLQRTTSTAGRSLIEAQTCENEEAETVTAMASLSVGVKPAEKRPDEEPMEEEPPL
Sequence of HDAC8 (Q9BY41 whole entry, canonical isoform): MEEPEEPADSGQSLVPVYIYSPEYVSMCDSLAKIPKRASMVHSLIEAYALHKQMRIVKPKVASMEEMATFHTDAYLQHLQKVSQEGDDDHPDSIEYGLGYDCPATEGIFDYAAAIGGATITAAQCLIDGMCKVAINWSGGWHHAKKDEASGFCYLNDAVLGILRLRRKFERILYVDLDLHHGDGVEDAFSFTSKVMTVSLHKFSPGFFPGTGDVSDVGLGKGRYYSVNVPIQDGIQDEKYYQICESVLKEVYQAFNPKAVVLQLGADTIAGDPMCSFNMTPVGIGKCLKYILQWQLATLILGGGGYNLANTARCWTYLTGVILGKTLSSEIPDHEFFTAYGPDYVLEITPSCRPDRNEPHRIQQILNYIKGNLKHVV
Sequence of HDAC9 (Q9UKV0 whole entry, canonical isoform): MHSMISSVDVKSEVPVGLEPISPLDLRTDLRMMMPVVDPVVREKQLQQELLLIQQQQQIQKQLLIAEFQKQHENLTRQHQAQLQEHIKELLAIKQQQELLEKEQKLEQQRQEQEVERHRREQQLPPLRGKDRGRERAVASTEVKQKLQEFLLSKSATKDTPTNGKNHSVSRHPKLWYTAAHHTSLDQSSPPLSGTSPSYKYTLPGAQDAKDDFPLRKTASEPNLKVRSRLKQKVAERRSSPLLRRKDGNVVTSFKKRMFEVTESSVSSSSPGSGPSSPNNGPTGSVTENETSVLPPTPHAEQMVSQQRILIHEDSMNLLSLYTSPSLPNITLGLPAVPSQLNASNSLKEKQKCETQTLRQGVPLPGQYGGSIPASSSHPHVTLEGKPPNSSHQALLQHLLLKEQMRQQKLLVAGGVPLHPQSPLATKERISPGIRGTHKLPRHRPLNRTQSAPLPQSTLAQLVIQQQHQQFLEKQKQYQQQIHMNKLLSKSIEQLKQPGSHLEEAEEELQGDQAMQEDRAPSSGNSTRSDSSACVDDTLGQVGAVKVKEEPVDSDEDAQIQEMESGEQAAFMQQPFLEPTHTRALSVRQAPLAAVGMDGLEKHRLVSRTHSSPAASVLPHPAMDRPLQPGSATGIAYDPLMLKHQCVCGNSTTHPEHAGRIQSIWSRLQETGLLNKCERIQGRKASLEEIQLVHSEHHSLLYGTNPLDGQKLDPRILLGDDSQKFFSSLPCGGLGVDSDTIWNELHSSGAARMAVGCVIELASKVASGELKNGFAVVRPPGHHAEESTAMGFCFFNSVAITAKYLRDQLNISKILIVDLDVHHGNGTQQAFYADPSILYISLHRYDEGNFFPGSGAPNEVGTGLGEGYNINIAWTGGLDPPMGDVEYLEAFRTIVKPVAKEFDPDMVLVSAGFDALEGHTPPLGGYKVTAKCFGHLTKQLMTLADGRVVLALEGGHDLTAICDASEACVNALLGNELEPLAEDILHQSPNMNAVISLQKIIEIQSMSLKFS
Sequence of HDAC2 (Q92769 whole entry, canonical isoform): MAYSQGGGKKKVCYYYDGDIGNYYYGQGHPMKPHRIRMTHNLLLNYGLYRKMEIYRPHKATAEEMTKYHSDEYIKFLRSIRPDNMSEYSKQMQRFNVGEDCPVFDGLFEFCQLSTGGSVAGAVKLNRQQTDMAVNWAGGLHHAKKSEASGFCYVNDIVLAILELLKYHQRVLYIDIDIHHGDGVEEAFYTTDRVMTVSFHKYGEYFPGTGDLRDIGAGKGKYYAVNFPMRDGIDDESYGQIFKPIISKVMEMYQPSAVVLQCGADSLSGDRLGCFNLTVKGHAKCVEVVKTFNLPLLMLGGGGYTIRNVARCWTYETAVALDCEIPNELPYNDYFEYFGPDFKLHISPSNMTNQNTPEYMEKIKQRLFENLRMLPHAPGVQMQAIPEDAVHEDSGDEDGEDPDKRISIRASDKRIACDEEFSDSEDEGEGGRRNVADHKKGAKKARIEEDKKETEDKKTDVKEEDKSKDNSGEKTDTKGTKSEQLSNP
Sequence of HDAC11 (Q96DB2 whole entry, canonical isoform): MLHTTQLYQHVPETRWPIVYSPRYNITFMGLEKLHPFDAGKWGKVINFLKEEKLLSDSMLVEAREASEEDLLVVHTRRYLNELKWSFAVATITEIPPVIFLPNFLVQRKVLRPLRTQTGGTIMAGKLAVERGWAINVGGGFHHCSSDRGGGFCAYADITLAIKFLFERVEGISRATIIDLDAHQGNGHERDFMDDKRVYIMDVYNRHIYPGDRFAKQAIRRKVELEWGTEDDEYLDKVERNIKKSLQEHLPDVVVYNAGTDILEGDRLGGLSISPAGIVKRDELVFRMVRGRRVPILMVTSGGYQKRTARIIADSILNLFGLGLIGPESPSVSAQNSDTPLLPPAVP
Sequence of HDAC5 (Q9UQL6 whole entry, canonical isoform): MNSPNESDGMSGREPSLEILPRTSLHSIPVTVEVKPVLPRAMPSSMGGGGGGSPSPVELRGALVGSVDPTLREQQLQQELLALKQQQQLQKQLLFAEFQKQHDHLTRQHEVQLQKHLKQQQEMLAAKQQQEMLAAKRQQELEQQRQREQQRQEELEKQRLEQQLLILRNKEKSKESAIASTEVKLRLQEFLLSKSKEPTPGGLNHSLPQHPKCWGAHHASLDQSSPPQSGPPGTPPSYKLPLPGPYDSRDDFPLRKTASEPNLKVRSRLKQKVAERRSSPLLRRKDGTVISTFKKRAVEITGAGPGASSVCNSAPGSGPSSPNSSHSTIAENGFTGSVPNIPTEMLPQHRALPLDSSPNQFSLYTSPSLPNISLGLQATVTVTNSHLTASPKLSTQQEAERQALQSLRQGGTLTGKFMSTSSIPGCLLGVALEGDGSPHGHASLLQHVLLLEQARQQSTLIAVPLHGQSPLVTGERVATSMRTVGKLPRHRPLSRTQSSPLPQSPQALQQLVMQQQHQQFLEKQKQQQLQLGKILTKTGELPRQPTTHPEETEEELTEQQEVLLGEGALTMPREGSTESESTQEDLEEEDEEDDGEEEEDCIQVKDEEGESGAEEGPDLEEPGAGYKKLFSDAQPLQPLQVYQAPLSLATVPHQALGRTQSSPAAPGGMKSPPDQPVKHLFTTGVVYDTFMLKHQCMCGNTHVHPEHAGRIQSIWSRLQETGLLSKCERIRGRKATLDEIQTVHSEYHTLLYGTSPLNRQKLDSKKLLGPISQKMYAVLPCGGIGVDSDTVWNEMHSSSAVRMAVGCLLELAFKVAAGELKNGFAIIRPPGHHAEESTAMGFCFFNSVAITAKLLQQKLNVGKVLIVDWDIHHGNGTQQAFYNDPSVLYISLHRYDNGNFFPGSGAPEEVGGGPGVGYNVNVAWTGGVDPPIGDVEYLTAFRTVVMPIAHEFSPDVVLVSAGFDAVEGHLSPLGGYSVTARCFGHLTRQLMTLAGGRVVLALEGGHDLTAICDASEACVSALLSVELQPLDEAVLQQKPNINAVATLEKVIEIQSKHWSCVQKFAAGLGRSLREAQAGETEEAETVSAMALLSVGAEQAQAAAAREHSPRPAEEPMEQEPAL

Regarding `O=C(NO)c1ccc(CN(C2CC2)S(=O)(=O)c2cc(F)c(F)c(F)c2F)cc1` [Compound I-13, 4-((N-cyclopropyl-2,3,4,5-tetrafluorophenylsulfonamido)methyl)-N-hydroxybenzamide], the “apoptotic-inducting potential (FACS)” value in the data set on MV-4-11 is listed as “larger populations of cells undergoing early apoptosis”. The solubility kinetic in [1] was found to be 88.1 ± 1.6 µM. In addition, the IC50 against HDAC11 is above 1000 nM; on HDAC10, above 1000 nM; against HDAC2, above 1000 nM; against HDAC9, above 1000 nM; at HDAC8, 334 nM; against HDAC5, above 1000 nM. The values for the IC50 against HDAC4 and on HDAC6 were above 1000 nM and 9 nM, respectively.

With `O=C(NO)c1ccc(CN(Cc2cccnc2)S(=O)(=O)c2cc(F)c(F)c(F)c2F)cc1` [Compound I-18, N-hydroxy-4-((2,3,4,5-tetrafluoro-N-(pyridin-3-ylmethyl)phenylsulfonamido)methyl)benzamide], the “apoptotic-inducting potential (FACS)” value with MV-4-11 is listed as “larger populations of cells undergoing early apoptosis”. Also, the solubility kinetic in data set [1] is 142 ± 2.4 µM. The concentration for half-maximal inhibition (IC50) was above 1000 nM against HDAC11; 551 nM against HDAC10; above 1000 nM at HDAC2; above 1000 nM at HDAC9; 316 nM against HDAC8; above 1000 nM against HDAC5. For the same molecule, the values for the concentration for half-maximal inhibition (IC50) against HDAC4 and at HDAC6 were above 1000 nM and 2 nM, respectively.

(Values after patent US20220169598A1, “HALOGENATED PHENYLSULFONAMIDE HYDROXAMIC ACID COMPOUNDS, COMPOSITIONS AND USES THEREOF AS SELECTIVE HDAC6 INHIBITORS” (2681603 ONTARIO INC., priority 2019, published 2022).)
